In paper PMC7083565, “In vitro metabolism, reaction phenotyping, enzyme kinetics, CYP inhibition and induction potential of ataluren” (Pharmacology Research & Perspectives, 2020):
Like-named read-outs stand apart in the source and are kept apart here.

Columns and labels:
Format in all cases: in vitro ADME
[1] = Ataluren glucuronidation kinetics, human liver microsomes; details: for CLint,u,UGT (scaled) / K m / K m, u / V max: HLM; for CLint,u,UGT (scaled): 40.0 mg protein/g tissue; for K m / K m, u / V max: mean ± SE; for K m / K m, u / V max / fraction unbound at 15 min: n = 3; for fraction unbound at 15 min: human, pooled human liver microsomes incubation mixture, pH 7.5, HLM, mean ± SD, read-out: fu,inc
Description: (§1) Ataluren at 0.5, 2.5, 12.5, 25, 50, 100, 200, and 400 µmol/L, was incubated (n = 3) at 37°C with recombinant human UGT1A9 and with pooled microsomes from human liver, kidney, and intestine (0.025 mg protein/mL, preactivated with alamethicin at 20 µg/mL) in Tris‐HCl buffer (0.1 mol/L, pH 7.5), in the presence of 1 mmol/L EDTA, 5 mmol/L MgCl2, with or without 0.5%, 1%, or 2% BSA. The incubation (100 µL final volume with 0.5% DMSO) was started by adding an equal volume of UDPGA (5 mmol/L) in Tris‐HCl buffer (0.1 mol/L, pH 7.5). After 30 minutes incubation, the incubation mixtures were combined with 0.3 mL of an internal standard solution in acetonitrile with 1% formic acid, followed by membrane plate filtration. The filtrates were used for LC‐MS/MS analysis to quantify the formation of ataluren‐O‐1β‐acyl glucuronide. Detailed LC‐MS/MS conditions are summarized in LC‐MS/MS Analysis section. Ataluren acyl glucuronide formation rate after 30 minutes incubation was calculated using the amount of metabolite formed (pmol) divided by the protein amount in the incubation sample (0.0025 mg) and the incubation time (30 minutes). Ataluren glucuronidation kinetic parameters were determined with and without adjusting BSA binding by nonlinear regression (GraphPad Prism, 5version 5.04, GraphPad Software, Inc.) using Michaelis‐Menten equation which was the best fit compared with other models. The intrinsic clearance was calculated as CLint = Vmax/Km. In order to compare unbound intrinsic clearance by glucuronidation (CLint,u,UGT) in different tissues, CLint,u,UGT was expressed per gram of tissue by correcting the values for the microsomal protein yield, resulting in scaled CLint,u,UGT. Microsomal protein yields of 40.0, 12.8, and 20.6 mg protein/g tissue were used for hepatic, renal, and intestinal data, respectively. ^26
(§2) The high‐throughput membrane ultrafiltration method ^27 was used to determine the fraction unbound in the incubation (n = 3). Incubation mixtures and procedures were essentially the same as the above except that UDPGA (5 mmol/L) was replaced with Tris‐HCl buffer (0.1 mol/L, pH 7.5). After 15 minutes incubation, aliquot was transferred to a Millipore Multiscreen Ultracel‐10 filter plate (10 kDa molecular mass cut off; EMD Millipore). The plate was centrifuged at 37°C and 3710 g. After 30 minutes centrifugation, aliquots of ultrafiltrates and incubation mixtures prior to ultrafiltration were quenched with an internal standard solution in acetonitrile, followed by membrane plate filtration. The filtrates were used for LC‐MS/MS analysis to quantify the concentration of ataluren. The same LC‐MS/MS conditions described above are summarized in LC‐MS/MS Analysis section. The free fraction = Cu/Cm, where Cu is the concentration of ataluren in the ultrafiltrate and Cm is the concentration of ataluren in the incubation system before centrifugation. Unbound Km (Km, u) was recalculated by applying Michaelis‐Menten equation using free ataluren concentrations after correcting BSA binding at each ataluren and BSA concentration level.
(§3) Quantification of ataluren‐O‐1β‐acyl glucuronide formation was conducted on an Accela pump and a PAL autosampler equipped with a TSQ Quantum Ultra mass spectrometer (Thermo Fisher Scientific). A Waters Acquity BEH column (C18, 1.7 µm, 50 × 2.1 mm; Waters Cooperation) was used and maintained at 50°C. The mobile phases were 0.1% formic acid in water (A) and acetonitrile (B). The flow rate was 0.6 mL/min and gradient program was as follows: linear gradient from 0% B to 95% B in 0.5 minutes and hold isocratic at 95% B for 1 minute; linear gradient from 95% B to 0% B in 0.1 minutes and hold isocratic at 0% B for 0.4 minutes. TSQ Quantum Ultra mass spectrometer was equipped with a heated electrospray ionization source operated in negative‐ion mode with a vaporizer temperature of 350°C, capillary temperature of 380°C, and spray voltage of 3 kV. […]

UGT (glucuronidation) = test: as above; details: human, pooled human liver microsomes, pH 7.5, HLM, read-out: CLint,u,UGT
Description: as §1, §2, §3

CYP2C19 = target: T1, CYP2C19 (Homo sapiens, UniProt P33261); test: CYP inhibition in pooled human liver microsomes: CYP2C19; details: CYP2C19, HLM, estimated, concentrations up to 400 μmol/L
T1 construct: tissue XenoTech LLC, Celsis-In Vitro Technologies, or Tissue Transformation Technologies; host or cells: pooled human liver microsomes
Description: The final concentration of each probe substrate was near the experimentally determined Km value for the indicated enzyme. Ataluren or prototypical CYP inhibitors (positive controls) was incubated (n = 3) with probe substrates and HLM in 100 mmol/L phosphate buffer (pH 7.4) in a total volume of approximately 0.25 mL, and the reactions were initiated by the addition of 1 mmol/L NADPH at 37°C. The reactions were carried out using previously established conditions to ensure linearity with respect to protein concentration and incubation time (Table S1). Incubations were stopped with the addition of ice‐cold acetonitrile. Metabolite formation in incubations with test compound and control inhibitors was assessed with LC‐MS/MS methods for each of the reaction products as described in Table S2. […] After 7 minutes incubation at 37°C, the reaction was stopped by the addition of ice‐cold acetonitrile, followed by membrane plate filtration. The filtrates were used for LC‐MS/MS analysis. […] IC50 values were determined by nonlinear regression with GraphPad Prism 5 using the following four‐parameter sigmoidal‐logistic IC50 equation: Fit=background+range-background/[1+I/IC50^slope]
Where, I is the inhibitor concentration, and background was set to 0 and range to 100, as percent of control values are utilized. K i was determined by nonlinear regression with GraphPad Prism 5 using best fit model.

T1 sequence (P33261 whole entry): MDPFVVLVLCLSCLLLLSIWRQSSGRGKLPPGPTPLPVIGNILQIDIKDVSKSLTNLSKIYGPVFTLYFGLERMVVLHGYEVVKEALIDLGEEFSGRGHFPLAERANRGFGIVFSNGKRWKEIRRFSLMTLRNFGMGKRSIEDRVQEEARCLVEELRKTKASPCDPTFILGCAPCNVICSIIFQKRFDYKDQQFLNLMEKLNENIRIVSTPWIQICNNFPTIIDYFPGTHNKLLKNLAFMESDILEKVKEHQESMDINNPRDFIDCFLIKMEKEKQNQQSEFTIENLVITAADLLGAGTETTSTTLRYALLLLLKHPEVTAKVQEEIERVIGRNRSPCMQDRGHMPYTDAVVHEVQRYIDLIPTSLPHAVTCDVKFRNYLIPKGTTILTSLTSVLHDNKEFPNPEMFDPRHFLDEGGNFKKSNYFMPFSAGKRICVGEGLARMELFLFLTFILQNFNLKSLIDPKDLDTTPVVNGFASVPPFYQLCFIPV

O=C(O)c1cccc(-c2noc(-c3ccccc3F)n2)c1 [ataluren, Ataluren]
CLint,u,UGT (scaled) ([1]; 0% BSA): 1.61 mL/min/g of tissue | K m ([1]; 0% BSA): 29.9 ± 4.49 µM | K m, u ([1]; 0% BSA): 29.9 ± 4.49 µM | V max ([1]; 0% BSA): 1204 ± 49.0 pmol/min/mg | CLint,u,UGT (scaled) ([1]; 0.5% BSA): 13.0 mL/min/g of tissue | K m ([1]; 0.5% BSA): 54.3 ± 9.42 µM | K m, u ([1]; 0.5% BSA): 4.50 ± 0.748 µM | V max ([1]; 0.5% BSA): 1465 ± 68.2 pmol/min/mg | CLint,u,UGT (scaled) ([1]; 1% BSA): 16.9 mL/min/g of tissue | K m ([1]; 1% BSA): 67.9 ± 9.19 µM | K m, u ([1]; 1% BSA): 3.00 ± 0.415 µM | V max ([1]; 1% BSA): 1264 ± 53.5 pmol/min/mg | CLint,u,UGT (scaled) ([1]; 2% BSA): 12.5 mL/min/g of tissue | K m ([1]; 2% BSA): 108 ± 10.7 µM | K m, u ([1]; 2% BSA): 2.83 ± 0.315 µM | V max ([1]; 2% BSA): 886 ± 34.7 pmol/min/mg | maximal effect of BSA on CLint,u (increase) ([1]; human liver microsomes, with vs without BSA): ~10 fold | fraction unbound at 15 min ([1]; 0% BSA): 1 ± 0.12 | fraction unbound at 15 min ([1]; 0.5% BSA): 0.093 ± 0.006 | fraction unbound at 15 min ([1]; 1% BSA): 0.05 ± 0.007 | fraction unbound at 15 min ([1]; 2% BSA): 0.03 ± 0.005 | microsomal CLint (UGT (glucuronidation); 0% BSA): 40.3 µL/min/mg | microsomal CLint (UGT (glucuronidation); 0.5% BSA): 326 µL/min/mg | microsomal CLint (UGT (glucuronidation); 1% BSA): 421 µL/min/mg | microsomal CLint (UGT (glucuronidation); 2% BSA): 313 µL/min/mg | IC50 (CYP2C19): > 400 µM
